# Read-outs that look alike come from different tables or passages of the source.
# Key:
# [1] = test system: C57BL/6J mice; assay: Hot water tail immersion test, acute co-administration with 5 mg/kg morphine; format: in vivo; conditions: for lowest dose that significantly increased latency: plus 5 mg/kg morphine s.c.
# Method: We were next interested in evaluating the effects of EU93-108 when given acutely in combination with morphine. 5 mg/kg morphine was chosen because this dose elicited an approximately half-maximal response in our initial morphine dose–response curve (Supporting Figure S3). This half-maximal response would allow us to see any changes in tail flick latency that EU93-108 might elicit.
# Four treatment groups and one control group were used (n = 8 per group). The control group received vehicle (10% DMSO, 20% PEG, 2% DMA in water) i.p. plus 5 mg/kg morphine s.c. formulated in normal saline, and groups 1–4 were randomly assigned one dose of EU93-108 i.p. plus 5 mg/kg morphine s.c. The doses used were the same as in the intrinsic analgesia experiments.
# All animal studies performed at Emory have been approved by the Institutional Animal Care and Use Committee at Emory University. Male and female C57BL/6J mice weighing between 20 and 30 g were housed five per cage and given ad libitum access to food and water. The mice were 8–10 weeks of age at the time of experimentation. Animal holding rooms operated on a 12 h dark/light cycle with the dark cycle from 7:00 pm to 7:00 am. Mice were allowed to acclimate in cages for one week after arrival. […]
# Mouse weights were recorded on the day of each experiment. […] Three recordings were taken for each mouse, and each data point is expressed as the mean of the three recordings. […] The identities were not decoded until the data were analyzed.
# Prism 9.3.1 software (GraphPad, San Diego, CA) was used for all data analysis and visualization. Data for intrinsic antinociception was analyzed using one-way ANOVA and Dunnett’s post hoc test for multiple comparisons where each group was compared to vehicle. Data for acute morphine potentiation experiments were analyzed using one-way ANOVA and Tukey’s post hoc test for multiple comparisons was also used, where each group mean was compared to the mean of every other group. Data for tolerance experiments were analyzed using repeated measures two-way ANOVA and Bonferroni post hoc analysis. […]
# [2] = target: T1, α1-Glycine (Homo sapiens, UniProt P23415); assay: Off-target ligand-gated ion channels in Xenopus oocytes; format: cell-based; conditions: agonist 100 µM glycine; mean ± SEM
# T1 construct: expressed in transfected cells; host or cells: Xenopus oocytes
# Method: (§1) EU93-108 was further examined for its behavior against common off-target receptors. First, selectivity for GluN2B over other ion channels in the brain was examined via two-electrode voltage clamp recordings of Xenopus oocytes expressing AMPA, kainate, nicotinic acetylcholine, serotonin, GABA, glycine, and ATP receptors. Current responses were tested with saturating concentrations of agonist in both the absence and presence of 10 μM EU93-108, and confirmed selectivity for GluN2B-containing NMDA receptors over AMPA, kainate, GABA, glycine, ATP, and 5-HT3A receptors (Supporting Table S3).
# (§2) Receptor Agonist % Control
# (§3) Supplemental Table S3. Off-target actions of EU93-108 at ligand-gated ion channels expressed in Xenopus oocytes. The mean ± standard error of the mean for agonist plus 10 μM EU93-108 as a percentage of agonist in vehicle are given for each compound and receptor tested. Number of oocytes tested is given in parentheses.
# [3] = target: T2, GluA1 (Homo sapiens, UniProt P42261); assay: as above; format: cell-based; conditions: agonist 100 µM glutamate; mean ± SEM
# T2 construct: expressed in transfected cells; host or cells: Xenopus oocytes
# Method: as §1, §2, §3
# [4] = target: T3, 5-HT3A (Homo sapiens, UniProt P46098); assay: as above; format: cell-based; conditions: agonist 100 µM serotonin; mean ± SEM
# T3 construct: expressed in transfected cells; host or cells: Xenopus oocytes
# Method: as §1, §2, §3
# [5] = target: T4, α1β2γ2S-GABAA (Homo sapiens, UniProt P14867+P18507+P47870); assay: as above; format: cell-based; conditions: agonist 100 µM GABA; mean ± SEM
# T4 construct: expressed in transfected cells; host or cells: Xenopus oocytes
# Method: as §1, §2, §3
# [6] = target: T5, GluA2-R607Q (Homo sapiens, UniProt P42262); assay: as above; format: cell-based; conditions: agonist 100 µM glutamate; mean ± SEM
# T5 construct: expressed in transfected cells; host or cells: Xenopus oocytes
# Method: as §1, §2, §3
# [7] = target: T6, hGluN1/GluN3A (Homo sapiens, UniProt Q05586+Q8TCU5); assay: as above; format: cell-based; conditions: agonist 100 µM glycine; mean ± SEM
# T6 construct: expressed in transfected cells; host or cells: Xenopus oocytes
# Method: as §1, §2, §3
# [8] = target: diheteromeric rat GluN1/GluN2Bc1/GluN2Bc2 (r2Bc1/r2Bc2) (Rattus norvegicus, UniProt P35439+Q00959+Q00960, A876H/F846L/G856D/H848F/K857R/M851T/M860L/Q845K/V861L); assay: Concentration-inhibition curves, oocytes, C1/C2-tagged NMDARs; format: cell-based
# [9] = target: triheteromeric rat GluN1/GluN2Ac1/GluN2Bc2 (r2Ac1/r2Bc2) (Rattus norvegicus, UniProt P35439+Q00959+Q00960, A876H/F846L/G856D/H848F/K857R/M851T/M860L/Q845K/V861L); assay: as above; format: cell-based
# [10] = Determination of plasma and brain concentrations; format: in vivo; conditions: Sprague-Dawley, rat, ip, male rats, 60 mg/kg i.p.
# Method: Brain concentrations were measured from whole forebrain homogenate at each time point.
# Trunk blood was collected in K-EDTA tubes and then spun in a microcentrifuge at 3500 rpm for 10 min to separate plasma, which was then transferred to a clean tube and frozen on dry ice. To prepare forebrain tissue samples, the whole brain was removed from the skull, the cerebellum and brainstem cut away, the meninges were removed, and the forebrain was then rinsed with ice-cold normal saline, after which it was blotted dry with filter paper and weighed on a microbalance. To each forebrain 2.5 mL of ice-cold 50 mM K-phosphate buffer (pH 7.4) was then added and the samples homogenized with a hand-held homogenizer. The brain homogenates were then transferred to clean tubes (2 per brain) and frozen on dry ice.
# Plasma and brain homogenate samples were analyzed by LC-MS/MS operating in multiple reaction monitor mode (MRM) by Ricerca Biosciences (Dublin, OH). […] The amount of parent compound in each plasma or brain sample was calculated by comparing the response of the analyte in the sample to that of a standard curve (Ricerca, OH).
# [11] = Hill slope factor of the inhibition curve, Table S1
# Chain of diheteromeric rat GluN1/GluN2Bc1/GluN2Bc2 (r2Bc1/r2Bc2) (Q00960+Q00959 fused with the stated changes, other chains not shown): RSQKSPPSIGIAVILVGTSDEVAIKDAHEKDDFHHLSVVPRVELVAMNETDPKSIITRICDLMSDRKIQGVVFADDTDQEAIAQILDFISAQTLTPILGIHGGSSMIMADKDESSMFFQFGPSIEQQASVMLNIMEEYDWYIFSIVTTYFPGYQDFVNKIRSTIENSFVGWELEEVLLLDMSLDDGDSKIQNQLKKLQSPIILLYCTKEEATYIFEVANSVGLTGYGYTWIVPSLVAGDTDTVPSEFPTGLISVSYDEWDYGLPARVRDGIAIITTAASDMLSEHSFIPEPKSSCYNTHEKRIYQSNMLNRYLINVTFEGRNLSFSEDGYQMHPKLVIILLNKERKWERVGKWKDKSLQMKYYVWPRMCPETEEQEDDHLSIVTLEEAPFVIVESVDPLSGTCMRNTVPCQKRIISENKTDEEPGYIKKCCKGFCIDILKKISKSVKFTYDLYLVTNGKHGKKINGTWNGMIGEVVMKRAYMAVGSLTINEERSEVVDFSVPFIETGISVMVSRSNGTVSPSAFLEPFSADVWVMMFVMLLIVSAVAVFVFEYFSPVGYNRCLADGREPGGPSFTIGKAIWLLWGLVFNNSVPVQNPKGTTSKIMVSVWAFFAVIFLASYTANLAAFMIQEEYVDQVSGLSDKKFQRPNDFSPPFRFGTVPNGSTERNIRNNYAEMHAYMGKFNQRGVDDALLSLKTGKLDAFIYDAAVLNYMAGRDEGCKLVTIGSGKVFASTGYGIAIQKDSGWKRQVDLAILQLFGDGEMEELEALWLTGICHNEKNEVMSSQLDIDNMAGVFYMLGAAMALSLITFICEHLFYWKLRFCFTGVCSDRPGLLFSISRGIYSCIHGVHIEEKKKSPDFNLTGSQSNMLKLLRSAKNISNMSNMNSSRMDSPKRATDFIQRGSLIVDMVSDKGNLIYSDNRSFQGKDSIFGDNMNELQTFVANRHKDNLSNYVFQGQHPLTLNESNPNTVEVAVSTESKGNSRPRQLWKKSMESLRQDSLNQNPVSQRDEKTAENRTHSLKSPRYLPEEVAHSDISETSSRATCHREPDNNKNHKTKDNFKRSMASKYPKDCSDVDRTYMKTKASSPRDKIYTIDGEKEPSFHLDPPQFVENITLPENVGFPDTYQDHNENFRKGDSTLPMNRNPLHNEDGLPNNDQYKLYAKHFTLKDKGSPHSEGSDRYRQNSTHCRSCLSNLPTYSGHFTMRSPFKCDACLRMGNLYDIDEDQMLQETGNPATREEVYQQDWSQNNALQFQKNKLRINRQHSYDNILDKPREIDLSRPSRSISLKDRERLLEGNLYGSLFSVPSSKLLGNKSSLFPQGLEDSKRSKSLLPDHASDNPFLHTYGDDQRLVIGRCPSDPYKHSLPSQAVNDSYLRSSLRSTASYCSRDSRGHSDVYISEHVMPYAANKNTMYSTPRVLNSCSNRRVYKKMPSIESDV
# Chain of diheteromeric rat GluN1/GluN2Bc1/GluN2Bc2 (r2Bc1/r2Bc2) (Q00960+Q00959 fused with the stated changes, other chains not shown): as above
# T1 sequence (P23415 29-457): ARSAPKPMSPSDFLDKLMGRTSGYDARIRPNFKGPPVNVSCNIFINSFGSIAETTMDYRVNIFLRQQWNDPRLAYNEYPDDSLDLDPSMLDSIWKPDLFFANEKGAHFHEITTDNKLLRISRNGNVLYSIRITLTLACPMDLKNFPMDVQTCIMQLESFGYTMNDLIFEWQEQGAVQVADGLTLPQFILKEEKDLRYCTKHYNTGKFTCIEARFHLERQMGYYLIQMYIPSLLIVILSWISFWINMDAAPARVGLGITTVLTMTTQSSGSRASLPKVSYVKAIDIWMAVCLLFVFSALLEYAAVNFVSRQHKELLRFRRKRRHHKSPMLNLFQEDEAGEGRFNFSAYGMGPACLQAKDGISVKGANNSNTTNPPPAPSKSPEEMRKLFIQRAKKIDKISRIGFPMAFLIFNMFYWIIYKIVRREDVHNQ
# T5 sequence (P42262 25-883, stated change not applied): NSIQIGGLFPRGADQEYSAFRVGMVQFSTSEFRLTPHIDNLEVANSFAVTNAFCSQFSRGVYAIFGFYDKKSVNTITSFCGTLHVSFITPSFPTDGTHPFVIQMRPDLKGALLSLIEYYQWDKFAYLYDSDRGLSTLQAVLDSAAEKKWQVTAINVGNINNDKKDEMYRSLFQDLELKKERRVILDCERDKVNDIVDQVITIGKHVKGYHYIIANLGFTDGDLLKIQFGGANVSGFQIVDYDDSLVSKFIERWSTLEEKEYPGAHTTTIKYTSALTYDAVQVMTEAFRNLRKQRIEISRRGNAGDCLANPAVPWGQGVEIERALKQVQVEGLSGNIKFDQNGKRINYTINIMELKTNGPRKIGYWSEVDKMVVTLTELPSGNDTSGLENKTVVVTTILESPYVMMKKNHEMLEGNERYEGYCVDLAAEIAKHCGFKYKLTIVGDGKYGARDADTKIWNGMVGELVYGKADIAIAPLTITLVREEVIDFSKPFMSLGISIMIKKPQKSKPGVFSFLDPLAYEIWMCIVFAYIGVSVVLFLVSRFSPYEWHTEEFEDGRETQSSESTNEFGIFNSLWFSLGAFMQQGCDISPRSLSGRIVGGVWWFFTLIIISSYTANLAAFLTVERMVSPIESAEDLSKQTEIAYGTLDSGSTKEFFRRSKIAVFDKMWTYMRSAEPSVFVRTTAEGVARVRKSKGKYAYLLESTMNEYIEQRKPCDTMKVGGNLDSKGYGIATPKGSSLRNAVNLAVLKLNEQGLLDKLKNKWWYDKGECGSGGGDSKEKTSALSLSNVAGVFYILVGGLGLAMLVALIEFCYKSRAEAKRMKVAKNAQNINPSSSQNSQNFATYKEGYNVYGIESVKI
# T3 sequence (P46098 24-478, species assumed): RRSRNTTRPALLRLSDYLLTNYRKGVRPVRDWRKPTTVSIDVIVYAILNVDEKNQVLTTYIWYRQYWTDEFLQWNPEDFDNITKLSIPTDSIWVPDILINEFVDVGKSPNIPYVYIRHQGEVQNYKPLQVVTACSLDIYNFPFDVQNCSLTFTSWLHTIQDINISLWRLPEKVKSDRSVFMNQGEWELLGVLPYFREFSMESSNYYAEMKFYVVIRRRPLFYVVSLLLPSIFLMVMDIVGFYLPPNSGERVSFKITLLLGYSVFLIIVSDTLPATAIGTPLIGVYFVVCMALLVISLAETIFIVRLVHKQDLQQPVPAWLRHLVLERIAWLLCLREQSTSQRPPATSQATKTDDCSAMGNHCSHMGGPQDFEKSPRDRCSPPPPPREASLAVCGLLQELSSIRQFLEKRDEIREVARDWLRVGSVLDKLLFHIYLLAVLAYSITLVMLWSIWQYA
structure (smiles),measurement,setting,value
"CS(=O)(=O)Nc1ccc(OC[C@@H](O)CN2CCN(c3ccc(F)c(F)c3)CC2)cc1 [EU93-108, (S)-N-(4-(3-(4-(3,4-Difluorophenyl)piperazin-1-yl)-2-hydroxypropoxy)phenyl)methanesulfonamide]",lowest dose that significantly increased latency,[1]; female mice,20 mg/kg
same,potency when combined with morphine versus EU93-108 alone,[1]; male mice,approximately 3 fold
same,lowest dose that significantly increased latency,[1]; male mice,10 mg/kg
same,% Control 10 µM EU93-108,[2],105 ± 6.6%
same,% Control 10 µM EU93-108,[3],101.3 ± 1.9%
same,% Control 10 µM EU93-108,[4],92.8 ± 2.7%
same,% Control 10 µM EU93-108,[5],92.8 ± 1.5%
same,% Control 10 µM EU93-108,[6],98.4 ± 0.57%
same,% Control 10 µM EU93-108,[7],103.6 ± 1.7%
same,residual current remaining at 10 μM EU93-108,"[8]; 10 μM, % of maximal response, n = 8",10.6%
same,IC50,"[8]; 100 μM glutamate and 100 μM glycine, −40 mV, pH 7.4, n = 8",233 nM
same,nH,[8]; [11],-1.06
same,Ymin,"[8]; residual response, Table S1, N = 8",10.6
same,residual current remaining at 10 μM EU93-108,"[9]; 10 μM, % of maximal response, n = 12",54%
same,IC50,"[9]; 100 μM glutamate and 100 μM glycine, −40 mV, pH 7.4, n = 12",543 nM
same,nH,[9]; [11],-0.92
same,Ymin,"[9]; residual response, Table S1, N = 12",54.0
same,Kp at 60 min,"[10]; brain (forebrain homogenate) / plasma, from Cmax, read-out: brain-to-plasma ratio",0.6
same,Cmax,"[10]; brain (whole forebrain homogenate), whole forebrain homogenate, read-out: Cmax in brain",18 µM
same,half-life,[10]; plasma and brain (forebrain homogenate),> 240 min
same,Tmax,"[10]; plasma and brain (forebrain homogenate), read-out: time of peak concentration (Tmax) (converted)",30 min
same,Cmax,"[10]; plasma, read-out: Cmax in plasma",30 µM
